18 compounds from patent US9445594B2, “Molecules having certain pesticidal utilities, intermediates, compositions, and processes, related thereto” (priority 2014, dated 2016) can be followed below.

Type in all cases: in vivo
Data set [1] relates to Green Peach Aphid (Myzus persicae, MYZUPE) ("GPA"). In words: Bioassays on GPA, foliar spray of infested cabbage seedlings. The note with it: 72 h, 200 ppm spray on cabbage seedlings, graded after three days, Abbott corrected % control, read-out: GPA % Control (or Mortality) rating. The gist of the method: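 Cabbage seedlings (2-3 true leaves) infested with 20-50 wingless adult and nymph aphids one day before spraying to runoff at 200 ppm in aqueous 0.025% Tween 20 with 20% acetone/methanol. Live aphids counted after three days at ~25 °C; % control by Abbott's correction versus solvent-check plants.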

In data set [2] the test system is Beet Armyworm (Spodoptera exigua, LAPHEG) ("BAW"). In words: Bioassays on BAW, 128-well diet tray assay. The note with it: 168 h, second instar larvae, 50 μg/cm^2 on artificial diet, 25° C., five to seven days, average of eight wells, read-out: BAW % Control (or Mortality) rating. The gist of the method:
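One to five second-instar larvae were placed per well on artificial diet surface-treated with 50 μg/cm^2 compound from 90:10 acetone-water, dried before infestation. Trays were held at 25 °C, 14:10 light-dark, for five to seven days. Percent mortality was averaged over eight wells.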

In data set [3] the test system is Corn Earworm (Helicoverpa zea, HELIZE) ("CEW"). In words: Bioassays on CEW, 128-well diet tray assay. The note with it: 168 h, second instar larvae, 50 μg/cm^2 on artificial diet, 25° C., five to seven days, average of eight wells, read-out: CEW % Control (or Mortality) rating. The procedure:
Certain molecules disclosed in this document were tested against BAW, CEW, and CL using procedures described in the following examples. In the reporting of the results, the “BAW, CEW, & CL Rating Table” was used (See Table Section).
Bioassays on CEW were conducted using a 128-well diet tray assay. one to five second instar CEW larvae were placed in each well (3 mL) of the diet tray that had been previously filled with 1 mL of artificial diet to which 50 μg/cm^2 of the test compound (dissolved in 50 μL of 90:10 acetone-water mixture) had been applied (to each of eight wells) and then allowed to dry. Trays were covered with a clear self-adhesive cover, and held at 25° C., 14:10 light-dark for five to seven days. Percent mortality was recorded for the larvae in each well; activity in the eight wells was then averaged. The results are indicated in the table entitled “Table ABC: Biological Results” (See Table Section). Bioassays on CL

The test system of data set [4] is Yellow Fever Mosquito (Aedes aegypti, AEDSAE) ("YFM"). In words: Bioassays on YFM, 96-well plate larval assay. The note with it: about 1 day-old larvae, from 4000 ppm DMSO master plate diluted, room temperature, scored after 3 days. The gist of the method:
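Compounds from 4000 ppm DMSO master plates, diluted in 90:10 water:acetone, dispensed into 96-well plates, six replicates. About 1-day-old larvae added in liver-powder water. Wells covered, held 3 days at room temperature, then scored for mortality.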

The test system of data set [5] is Cabbage Looper (Trichoplusia ni, TRIPNI) ("CL"). In words: Bioassays on CL, 128-well diet tray assay. The note with it: 168 h, second instar larvae, 50 μg/cm^2 on artificial diet, 25° C., five to seven days, average of eight wells, read-out: CL % Control (or Mortality) rating. The method in brief: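 Second-instar larvae (one to five per well) on artificial diet surface-treated with 50 μg/cm^2 compound in 90:10 acetone-water, eight wells per treatment. Held at 25° C., 14:10 light-dark for five to seven days. Percent mortality scored per well and averaged over the eight wells.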

Take `CCOc1ccc(NC(=O)Nc2ccc(-c3ncn(-c4ccc(OC(F)(F)F)cc4)n3)cc2)cc1` [F2, 1-(4-ethoxyphenyl)-3-(4-(1-(4-(trifluoromethoxy)phenyl)-1H-1,2,4-triazol-3-yl)phenyl)urea]: the mortality at 200 ppm in data set [1] stood at 0%. In addition, the mortality at 50 µg/cm2 in data set [2] and in data set [3] was 0% in each case.
In the case of `CCOc1ccc(NC(=O)Nc2ccc(-c3ncn(-c4ccc(OC(F)(F)F)cc4)n3)cc2)cn1` [F8, 1-(6-Ethoxypyridin-3-yl)-3-(4-(1-(4-(trifluoromethoxy)phenyl)-1H-1,2,4-triazol-3-yl)phenyl)urea], the mortality at 200 ppm in data set [1] worked out at 0%. For the same compound, the mortality at 50 µg/cm2 in data set [2] and in data set [3] was 0% throughout.
As for `COc1ccc(NC(=O)Nc2ccc(-c3ncn(-c4ccc(OC(F)(F)F)cc4)n3)cc2)cn1` [F10, 1-(6-Methoxypyridin-3-yl)-3-(4-(1-(4-(trifluoromethoxy)phenyl)-1H-1,2,4-triazol-3-yl)phenyl)urea], in data set [1], the mortality at 200 ppm lay within 0 to 80%. Besides, the mortality at 50 µg/cm2 in data set [2] and in data set [3] was 50 to 100% throughout.
Regarding `O=C(Nc1ccc(-c2ncn(-c3ccc(OC(F)(F)F)cc3)n2)cc1)Nc1ccccc1-c1ccco1` [F21, 1-(2-(Furan-2-yl)phenyl)-3-(4-(1-(4-(trifluoromethoxy)phenyl)-1H-1,2,4-triazol-3-yl)phenyl)urea], the “YFM % Control (or Mortality) rating” value in data set [4] is recorded as “D (No activity noticed in this bioassay)”. Moreover, the mortality at 50 µg/cm2 in data set [5], in data set [2] and in data set [3] was 50 to 100% throughout.
On to `FC(F)(F)Oc1ccc(-n2cnc(-c3ccc(NC(=S)Nc4ccccc4-c4noc(C5CC5)n4)cc3)n2)cc1` [F23, 1-(2-(5-Cyclopropyl-1,2,4-oxadiazol-3-yl)phenyl)-3-(4-(1-(4-(trifluoromethoxy)phenyl)-1H-1,2,4-triazol-3-yl)phenyl)thiourea], for which the “YFM % Control (or Mortality) rating” value in data set [4] is recorded as “A (80-100)”. Also, the mortality at 50 µg/cm2 in data set [5], in data set [2] and in data set [3] was 50 to 100% throughout.
For the compound `Cc1ccc(C(C)C)c(NC(=S)NCCCc2ccc(-c3ncn(-c4ccc(OC(F)(F)F)cc4)n3)cc2)c1` [F29, 1-(2-isopropyl-5-methylphenyl)-3-(3-(4-(1-(4-(trifluoromethoxy)phenyl)-1H-1,2,4-triazol-3-yl)phenyl)propyl)thiourea], the “YFM % Control (or Mortality) rating” value in data set [4] is given as “A (80-100)”. The mortality at 50 µg/cm2 in data set [5], in data set [2] and in data set [3] was 50 to 100% each time.
On to `FC(F)(F)Oc1ccc(-n2cnc(-c3ccc(NC(=S)Nc4ccccc4-c4ccco4)cc3)n2)cc1` [F30, 1-(2-(Furan-2-yl)phenyl)-3-(4-(1-(4-(trifluoromethoxy)phenyl)-1H-1,2,4-triazol-3-yl)phenyl)thiourea], for which the “YFM % Control (or Mortality) rating” value in data set [4] is recorded as “A (80-100)”. Also, the mortality at 50 µg/cm2 in data set [5], in data set [2] and in data set [3] was 50 to 100% in each case.
Consider `Cc1nc(Cl)ccc1NC(=O)Nc1ccc(-c2ncn(-c3ccc(OC(F)(F)F)cc3)n2)cc1` [F36, 1-(6-Chloro-2-methylpyridin-3-yl)-3-(4-(1-(4-(trifluoromethoxy)phenyl)-1H-1,2,4-triazol-3-yl)phenyl)urea], for which, in data set [1], the mortality at 200 ppm fell in the range of 0 to 80%. The mortality at 50 µg/cm2 in data set [2] and in data set [3] was 50 to 100% in each case.
For `CCOC(=O)c1ccc(NC(=O)Nc2ccc(-c3ncn(-c4ccc(OC(F)(F)F)cc4)n3)cc2)c(C)n1` [F41, Ethyl 6-methyl-5-(3-(4-(1-(4-(trifluoromethoxy)phenyl)-1H-1,2,4-triazol-3-yl)phenyl)ureido)picolinate], the mortality at 200 ppm in data set [1] worked out at 0%. The mortality at 50 µg/cm2 in data set [2] and in data set [3] was 0% throughout.
Take `CC(C)n1cnnc1-c1ccccc1NC(=S)Nc1ccc(-c2ncn(-c3ccc(OC(F)(F)F)cc3)n2)cc1` [F48, 1-(2-(4-isopropyl-4H-1,2,4-triazol-3-yl)phenyl)-3-(4-(1-(4-(trifluoromethoxy)phenyl)-1H-1,2,4-triazol-3-yl)phenyl)thiourea]: the “YFM % Control (or Mortality) rating” value in data set [4] was “A (80-100)”. Further, the mortality at 50 µg/cm2 in data set [5] fell in the range of 50 to 100%; in data set [2] it was 50 to 100%; in data set [3], 0 to 50%.
As to `CC(C)c1ccccc1NC(=S)Nc1ccc(-c2ncn(-c3ccc(C(F)(F)F)cc3)n2)cc1` [F53, 1-(2-isopropylphenyl)-3-(4-(1-(4-(trifluoromethyl)phenyl)-1H-1,2,4-triazol-3-yl)phenyl)thiourea], in data set [4], the “YFM % Control (or Mortality) rating” value was “A (80-100)”. Besides, in data set [1], the mortality at 200 ppm fell in the range of 0 to 80%. Besides, the mortality at 50 µg/cm2 in data set [2] and in data set [3] was 50 to 100% each time.
Take `CC(C)n1cnnc1-c1ccccc1NC(=O)Nc1ccc(-c2ncn(-c3ccc(OC(F)(F)F)cc3)n2)cc1` [F55, 1-(2-(4-Isopropyl-4H-1,2,4-triazol-3-yl)phenyl)-3-(4-(1-(4-(trifluoromethoxy)phenyl)-1H-1,2,4-triazol-3-yl)phenyl)urea]: the “YFM % Control (or Mortality) rating” value in data set [4] is listed as “A (80-100)”. The mortality at 50 µg/cm2 in data set [5] is 50 to 100%; in data set [2], 50 to 100%; in data set [3], 0%.
Regarding `Cc1ccc(C(C)C)c(NC(=O)Nc2ccc(-c3ncn(-c4ccc(OC(F)(F)C(F)(F)F)cc4)n3)cc2)c1` [F57, 1-(2-Isopropyl-5-methylphenyl)-3-(4-(1-(4-(perfluoroethoxy)phenyl)-1H-1,2,4-triazol-3-yl)phenyl)urea], in data set [4], the “YFM % Control (or Mortality) rating” value is reported as “D (No activity noticed in this bioassay)”. Further, the mortality at 50 µg/cm2 in data set [5], in data set [2] and in data set [3] was 50 to 100% in each case.
Take `FC(F)(F)Oc1ccc(-n2cnc(-c3ccc(NC(=S)Nc4ccccc4Cc4ccccc4)cc3)n2)cc1` [F58, 1-(2-Benzylphenyl)-3-(4-(1-(4-(trifluoromethoxy)phenyl)-1H-1,2,4-triazol-3-yl)phenyl)thiourea]: the “YFM % Control (or Mortality) rating” value in data set [4] is “D (No activity noticed in this bioassay)”. In addition, the mortality at 50 µg/cm2 in data set [5], in data set [2] and in data set [3] was 50 to 100% throughout.
As to `CC(C)c1ccccc1NC(=O)NCc1ccc(-c2ncn(-c3ccc(OC(F)(F)F)cc3)n2)cc1` [F65, 1-(2-Isopropylphenyl)-3-(4-(1-(4-(trifluoromethoxy)phenyl)-1H-1,2,4-triazol-3-yl)benzyl)urea], the “YFM % Control (or Mortality) rating” value in data set [4] was “D (No activity noticed in this bioassay)”. For the same compound, the results for the mortality at 50 µg/cm2 in data set [5], in data set [2] and in data set [3] were 50 to 100%, 0% and 0 to 50%, respectively.
`CC(=O)N(C(=S)Nc1cccc(C)c1)c1ccc(-c2ncn(-c3ccc(OC(F)(F)F)cc3)n2)cc1` [F67, N-(m-tolylcarbamothioyl)-N-(4-(1-(4-(trifluoromethoxy)phenyl)-1H-1,2,4-triazol-3-yl)phenyl)acetamide]: the “YFM % Control (or Mortality) rating” value in data set [4] is “D (No activity noticed in this bioassay)”. For the same compound, the mortality at 200 ppm in data set [1] turned out to be 0%. Moreover, the mortality at 50 µg/cm2 is 0 to 50% in data set [2] and 0% in data set [3].
Consider `O=C(NCc1ccc(-c2ncn(-c3ccc(OC(F)(F)C(F)(F)F)cc3)n2)cc1)Nc1ccccc1-c1ccccc1` [F73, 1-([1,1′-Biphenyl]-2-yl)-3-(4-(1-(4-(perfluoroethoxy)phenyl)-1H-1,2,4-triazol-3-yl)benzyl)urea], for which the mortality at 50 µg/cm2 in data set [5], in data set [2] and in data set [3] was 50 to 100% each time.
Take `FC(F)(F)Oc1ccc(-n2cnc(-c3ccc(NC(=S)Nc4ccccc4-n4cccc4)cc3)n2)cc1` [F74, 1-(2-(1H-Pyrrol-1-yl)phenyl)-3-(4-(1-(4-(trifluoromethoxy)phenyl)-1H-1,2,4-triazol-3-yl)phenyl)thiourea]: the mortality at 50 µg/cm2 in data set [5], in data set [2] and in data set [3] was 50 to 100% each time.
